From patent US7855205B2, “Pyrimidinyl substituted fused-pyrrolyl compounds useful in treating kinase disorders” (Janssen Pharmaceutica NV, priority 2004, dated 2010)
Read-outs that look alike come from different tables or passages of the source.

Key:
[1] = biological target: T1, CDK1:Cyclin-B (Homo sapiens, UniProt P06493); assay: CDK1 Screening Assay; type: biochemical; details: 33P-γ-ATP incorporation, 10 μM ATP
T1 construct: purchased New England Biolabs, Beverly, Mass; 6020; host or cells: insect cells
Method: (§1) A kinase reaction mixture was prepared containing 50 mM Tris-HCl pH=8, 10 mM MgCl2, 0.1 mM […], 1 mM DTT, 10 μM ATP, 0.025 μM biotinylated histone-HI peptide substrate and […] per well ^33P-γ-ATP (2000-3000 Ci/mmol). 70 μL of the kinase reaction mixture was dispensed into the well of a streptavidin coated FlashPlate™ (Cat. # SMP103, NEN, Boston, Mass.). Then 1 μL of test compound stock in 100% DMSO was added to the wells resulting in a final concentration of 1% DMSO in the reaction with a 100 μL final reaction volume.
(§2) The CDK1:Cyclin-B protein was then diluted in 50 mM Tris-HCl pH=8.0, 0.1% BSA at a concentration of 1 ng per μL and 30 μL (30 ng enzyme per test well) was added to each well to initiate the reaction. The reaction was incubated for one hour at 30° C. At the end of the 1 h incubation, the reaction was terminated by aspirating the mixture from the plate and washing the wells twice with PBS containing 100 mM EDTA. The histone-H1 biotinylated peptide substrate became immobilized on the Flashplate™ and the incorporation of ^33P-γ-ATP was measured by reading the plate on a scintillation counter. Inhibition of the enzymatic activity of CDK1 was measured by observing a reduced amount of ^33P-γ-ATP incorporated into the immobilized peptide.
The CDK1 used was isolated from insect cells expressing both the human CDK1 catalytic subunit and its positive regulatory subunit cyclin B (New England Biolabs, Beverly, Mass., Cat. #6020).
(§3) • VEGF-R2, HER2 and (Biotin)[…]-Amide • RET kinases • CDK1 (Biotin)[…]-Amide • Aurora-A kinase Biotin-[…]-Amide

[2] = biological target: T2, VEGF-R2 (Rattus norvegicus, UniProt O08775); assay: VEGF-R2 Screening Assay; type: biochemical; details: 33P-γ-ATP incorporation, 10 μM ATP
T2 construct: polyhistidine (N)
Method: as §2, with “Then 1 μL of test compound stock in 100% DMSO was added to the wells resulting in a final concentration of 1% DMSO in the reaction with a 100 μL final reaction volume. The CDK1:Cyclin-B” for “The CDK1:Cyclin-B”, “immobilized peptide. The VEGF-R kinase assay was carried out using the CDK kinase assay procedure except that the enzyme was replaced with the VEGF-R2 fusion protein containing a polyhistidine tag at the N-terminus followed by amino acids 786-1343 of the rat VEGF-R2 kinase domain (GenBank Accession #U93306).” for “immobilized peptide.”

[3] = biological target: T3, Aurora-A (Mus musculus, UniProt P97477); assay: Aurora-A Screening Assay; type: biochemical, murine; details: 33P-γ-ATP incorporation, 10 μM ATP
T3 construct: made in house; host or cells: sf9 insect cells
T3 sequence (P97477 1-395): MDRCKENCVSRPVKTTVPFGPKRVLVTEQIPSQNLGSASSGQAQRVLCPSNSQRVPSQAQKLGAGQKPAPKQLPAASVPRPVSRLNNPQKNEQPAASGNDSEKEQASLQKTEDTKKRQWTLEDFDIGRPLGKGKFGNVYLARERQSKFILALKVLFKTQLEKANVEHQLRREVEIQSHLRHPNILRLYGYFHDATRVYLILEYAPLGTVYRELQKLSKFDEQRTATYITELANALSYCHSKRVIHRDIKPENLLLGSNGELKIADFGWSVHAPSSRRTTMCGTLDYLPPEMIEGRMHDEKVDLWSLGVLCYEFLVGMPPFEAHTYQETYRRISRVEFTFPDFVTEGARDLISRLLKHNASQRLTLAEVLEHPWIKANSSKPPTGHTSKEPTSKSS
Method: as §1, §2
The Aurora-A kinase assay was carried out using the CDK kinase assay procedure except that the enzyme was replaced with the full length protein encoding the murine Aurora-A (Accession# GB BC014711) expressed and purified from sf9 insect cells.
as §3

[4] = system: HeLa cervical adenocarcinoma; assay: Inhibition of cell proliferation (14C-thymidine incorporation), HeLa; type: cell-based;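 also: HeLa cells in 96-well scintillating plates, compound for 24 h then 24 h more with 14C-thymidine, counting label built into new DNA against DMSO-only control wells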
[5] = system: HCT-116 colon carcinoma; assay: Inhibition of cell proliferation (14C-thymidine incorporation), HCT-116; type: cell-based
Method: (§4) The ability of a test compound to inhibit the proliferation of cell growth was determined by measuring incorporation of ^14C-labelled thymidine into newly synthesized DNA within the cells. This method was used on cell lines derived from carcinomas originating from several tissues such as HeLa cervical adenocarcinoma (American Type Culture Collection (ATCC), Virginia, Cat. #CCL-2), A375 malignant melanoma (ATCC CRL-1619), HCT-116 colon carcinoma (CCL-247). In this way the effect of a compound on cell growth of cells with many different phenotypes can be determined. Cells were trypsinized and counted and 3000-8000 cells were added to each well of a 96-well CytoStar tissue culture treated scintillating microplate (Amersham #RPNQ0160) in complete medium in a volume of 100 μL. Cells were incubated for 24 hours in complete medium at 37° C. in an atmosphere containing 5% CO2.
(§5) Next, 1 μL of test compound in 100% DMSO was added to the wells of the plate. DMSO only was added to control wells. Cells were incubated for 24 more hours in complete medium at 37° C. in an atmosphere containing 5% CO2. Methyl ^14C-thymidine 56 mCi/mmol (NEN #NEC568 or Amersham #CFA532) was diluted in complete medium and 0.2 uCi/well was added to each well of the CytoStar plate in a volume of 20 μl. The plate was incubated for 24 hours at 37° C. plus 5% CO2 in drug plus ^14C-thymidine. The contents of the plate discarded into a ^14C radioactive waste container by inverting the plate and the plate was washed twice with 200 μL PBS.
(§6) 200 μL of PBS is added to each well. The top of the plate was sealed with a transparent plate sealer and a white plate backing sealer (Packard #6005199) was applied to the bottom of the plate. The degree of methyl ^14C-thymidine incorporation was quantified on a Packard Top Count.

[6] = system: A375 malignant melanoma; assay: Inhibition of cell proliferation (14C-thymidine incorporation), A375; type: cell-based, human
Method: as §4, §5, §6

T1 sequence (P06493 whole entry): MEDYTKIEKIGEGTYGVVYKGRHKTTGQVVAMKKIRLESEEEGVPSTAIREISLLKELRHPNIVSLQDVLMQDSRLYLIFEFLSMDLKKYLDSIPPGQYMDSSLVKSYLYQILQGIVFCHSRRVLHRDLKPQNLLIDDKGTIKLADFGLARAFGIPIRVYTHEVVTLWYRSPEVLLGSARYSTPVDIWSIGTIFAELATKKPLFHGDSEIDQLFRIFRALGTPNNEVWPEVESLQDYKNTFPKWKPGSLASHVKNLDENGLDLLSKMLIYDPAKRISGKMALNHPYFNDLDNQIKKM
T1 sequence (P14635 whole entry partner): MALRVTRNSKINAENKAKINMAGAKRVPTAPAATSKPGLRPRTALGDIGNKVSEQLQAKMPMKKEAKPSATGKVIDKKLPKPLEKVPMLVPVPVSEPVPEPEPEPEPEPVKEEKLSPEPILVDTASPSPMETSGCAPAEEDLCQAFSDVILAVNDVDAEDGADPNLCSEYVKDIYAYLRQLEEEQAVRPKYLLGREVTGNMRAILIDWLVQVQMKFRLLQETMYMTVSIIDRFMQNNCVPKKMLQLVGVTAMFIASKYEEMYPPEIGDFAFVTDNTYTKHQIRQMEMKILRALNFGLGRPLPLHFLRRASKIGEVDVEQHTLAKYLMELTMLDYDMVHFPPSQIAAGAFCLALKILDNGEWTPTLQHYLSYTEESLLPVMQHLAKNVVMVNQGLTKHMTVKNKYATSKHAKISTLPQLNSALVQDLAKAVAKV
T2 sequence (O08775 786-1343): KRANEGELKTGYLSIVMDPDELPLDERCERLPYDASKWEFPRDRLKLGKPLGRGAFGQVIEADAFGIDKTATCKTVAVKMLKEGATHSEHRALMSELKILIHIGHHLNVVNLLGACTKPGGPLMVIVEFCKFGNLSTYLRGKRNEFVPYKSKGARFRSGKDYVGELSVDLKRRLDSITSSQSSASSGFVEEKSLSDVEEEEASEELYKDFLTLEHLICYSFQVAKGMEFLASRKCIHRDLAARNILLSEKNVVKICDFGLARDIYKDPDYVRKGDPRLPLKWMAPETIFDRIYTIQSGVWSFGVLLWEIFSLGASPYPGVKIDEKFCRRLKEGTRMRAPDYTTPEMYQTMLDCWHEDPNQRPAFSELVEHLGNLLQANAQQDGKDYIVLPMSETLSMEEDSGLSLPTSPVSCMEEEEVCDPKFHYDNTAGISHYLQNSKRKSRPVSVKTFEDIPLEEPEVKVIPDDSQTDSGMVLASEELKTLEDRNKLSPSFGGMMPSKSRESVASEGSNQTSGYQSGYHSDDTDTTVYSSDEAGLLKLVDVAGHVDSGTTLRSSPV

| IC50 [1] | IC50 [2] | IC50 [3] | IC50 ([4]; Homo sapiens) | IC50 ([5]; Homo sapiens, HCT-116, HCT116) | IC50 ([6]; Homo sapiens, A-375) | IC50 [4] | IC50 ([5]; HCT116) | IC50 [6] | SMILES |
| --- | --- | --- | --- | --- | --- | --- | --- | --- | --- |
| 0.139 µM | 0.049 µM | 0.289 µM | 0.956 µM | 0.652 µM | 1.65 µM | – | – | – | Oc1ccccc1Nc1nccc(-c2c[nH]c3ncccc23)n1 [Cpd 30, (2-Hydroxyphenyl)-[4-(1H-pyrrolo[2,3-b]pyridin-3-yl)-pyrimidin-2-yl]-amine] |
| 0.128 µM | 1 µM | 2.36 µM | 0.393 µM | 0.298 µM | 0.504 µM | – | – | – | CS(=O)(=O)n1cc(-c2ccnc(NC3CCCCC3)n2)c2cccnc21 [Cpd 67, Cyclohexyl-[4-(1-methanesulfonyl-1H-pyrrolo[2,3-b]pyridin-3-yl)pyrimidin-2-yl]-amine] |
| 1.35 µM | 10 µM | – | 0.21 µM | 0.157 µM | 0.298 µM | – | – | – | CN(C)CC(O)Cn1cc(-c2ccnc(N[C@H]3CC[C@H](O)CC3)n2)c2cccnc21 (relative stereo) [Cpd 76, trans-4-{4-[1-(3-Dimethylamino-2-hydroxy-propyl)-1H-pyrrolo[2,3-b]pyridin-3-yl]-pyrimidin-2-ylamino}-cyclohexanol] |
| 0.014 µM | 2.08 µM | 0.263 µM | 0.031 µM | 0.032 µM | 0.033 µM | – | – | – | c1cnc2[nH]cc(-c3ccnc(NC4CCCCC4)n3)c2c1 [Cpd 13, Cyclohexyl-[4-(1H-pyrrolo[2,3-b]pyridin-3-yl)-pyrimidin-2-yl]-amine] |
| 3.89 µM | – | – | 4.53 µM | 3.76 µM | 3.02 µM | – | – | – | CN(C)CCn1cc(-c2ccnc(N[C@H]3CC[C@H](O)CC3)n2)c2cccnc21 [Cpd 74, trans-4-{4-[1-(2-Dimethylaminoethyl)-1H-pyrrolo[2,3-b]pyridin-3-yl]-pyrimidin-2-ylamino}-cyclohexanol] |
| 2.02 µM | – | 10 µM | – | – | – | 1.99 µM | 1.58 µM | 2.81 µM | O=S(=O)(c1ccccc1)n1cc(-c2ccnc(N[C@H]3CC[C@H](O)CC3)n2)c2cccnc21 [Cpd 75, trans-4-[4-(1-Benzenesulfonyl-1H-pyrrolo[2,3-b]pyridin-3-yl)-pyrimidin-2-ylamino]-cyclohexanol] |
| 1.87 µM | – | – | 13.2 µM | 4.54 µM | 2.81 µM | – | – | – | Cc1cc(OCCN(C)C)ccc1Nc1nccc(-c2c[nH]c3ncccc23)n1 [Cpd 81, [4-(2-Dimethylamino-ethoxy)-2-methyl-phenyl]-[4-(1H-pyrrolo[2,3-b]pyridin-3-yl)-pyrimidin-2-yl]-amine] |
| 0.0223 µM | – | 1 µM | 0.467 µM | 0.277 µM | 0.448 µM | – | – | – | Clc1ccc(Nc2nccc(-c3c[nH]c4ncccc34)n2)c(Cl)c1 [Cpd 36, (2,4-Dichlorophenyl)-[4-(1H-pyrrolo[2,3-b]pyridin-3-yl)-pyrimidin-2-yl]-amine] |
| 10.4 µM | – | – | 8.9 µM | 13.4 µM | 7.69 µM | – | – | – | CN(C)CCn1cc(-c2ccnc(NC3CCCCC3)n2)c2cccnc21 [Cpd 69, Cyclohexyl-{4-[1-(2-dimethylaminoethyl)-1H-pyrrolo[2,3-b]pyridin-3-yl]-pyrimidin-2-yl}-amine] |
| – | – | – | 52.2 µM | ≥ 10 µM | ≥ 10 µM | – | – | – | Cn1cc(-c2ccnc(NC3CCCCC3)n2)c2cccnc21 [Cpd 66, Cyclohexyl-[4-(1-methyl-1H-pyrrolo[2,3-b]pyridin-3-yl)pyrimidin-2-yl]-amine] |
| 7.02 µM | – | – | 4.16 µM | 3.51 µM | 3.95 µM | – | – | – | CNCCn1cc(-c2ccnc(N[C@H]3CC[C@H](O)CC3)n2)c2cccnc21 [Cpd 73, trans-4-{4-[1-(2-Methylaminoethyl)-1H-pyrrolo[2,3-b]pyridin-3-yl]-pyrimidin-2-ylamino}-cyclohexanol] |
| 3.21 µM | – | – | 6.29 µM | 3.97 µM | 5.93 µM | – | – | – | OCCn1cc(-c2ccnc(NC3CCCCC3)n2)c2cccnc21 [Cpd 70, Cyclohexyl-{4-[1-(2-hydroxyethyl)-1H-pyrrolo[2,3-b]pyridin-3-yl]-pyrimidin-2-yl}-amine] |
| 1.65 µM | – | – | 9.51 µM | 4.46 µM | 7.15 µM | – | – | – | Cn1cc(-c2ccnc(N[C@H]3CC[C@H](O)CC3)n2)c2cccnc21 [Cpd 71, trans-4-[4-(1-Methyl-1H-pyrrolo[2,3-b]pyridin-3-yl)-pyrimidin-2-ylamino]-cyclohexanol] |
| 2.31 µM | 10 µM | – | 2.58 µM | 3.87 µM | 4.54 µM | – | – | – | CNCCOc1ccc(Nc2nccc(-c3c[nH]c4ncccc34)n2)c(C)c1 [Cpd 80, [4-(2-Methylamino-ethoxy)-2-methyl-phenyl]-[4-(1H-pyrrolo[2,3-b]pyridin-3-yl)-pyrimidin-2-yl]-amine] |

| SMILES | IC50 [1] | IC50 [2] | IC50 [3] | IC50 ([4]; Homo sapiens) | IC50 ([5]; Homo sapiens, HCT-116, HCT116) | IC50 ([6]; Homo sapiens, A-375) | IC50 [4] | IC50 ([5]; HCT116) | IC50 [6] |
| --- | --- | --- | --- | --- | --- | --- | --- | --- | --- |
| Cc1ccccc1Nc1nccc(-c2c[nH]c3ncccc23)n1 [Cpd 8, [4-(1H-Pyrrolo[2,3-b]pyridin-3-yl)-pyrimidin-2-yl]-o-tolyl-amine] | 0.0037 µM | 0.57 µM | 0.301 µM | – | 0.024 µM | 0.024 µM | – | – | – |
| Cc1cccc(Nc2nccc(-c3c[nH]c4ncccc34)n2)c1 [Cpd 9, [4-(1H-Pyrrolo[2,3-b]pyridin-3-yl)-pyrimidin-2-yl]-m-tolyl-amine] | 0.057 µM | 0.0967 µM | 0.136 µM | – | 0.25 µM | 0.34 µM | – | – | – |
| Cc1cc(CCO)ccc1Nc1nccc(-c2c[nH]c3ncccc23)n1 [Cpd 44] | – | 0.493 µM | 0.142 µM | 0.011 µM | 0.00398 µM | 0.00845 µM | – | – | – |
